Assay results reported in patent US12448366B2, “Solid forms of pralsetinib” (Rigel Pharmaceuticals, Inc., priority 2020, dated 2025).
Structures can show the parent of a compound that is named as a salt.

Key:
Assay type in all cases: physicochemical
[1] = Humidity exposure, 75% relative humidity at 40° C. for one week, XRPD
[2] = One week (7 days) slurry stability by XRPD and HPLC
[3] = Salt screening: XRPD of wet cake, after drying under vacuum at 50° C., after exposure to 97% relative humidity; conditions: for stability of salt solid form to humidification: 97% (>95%) relative humidity; for stability of salt solid form to humidification / stability of salt solid form to drying: XRPD; for stability of salt solid form to drying: vacuum at 50° C.; for XRPD Pattern Dry / XRPD Pattern Humid: salt screening; for XRPD Pattern Dry: after drying; for XRPD Pattern Humid: after humidity exposure
Experimental: Stock solutions of counter-ion were prepared in EtOH, MeOH, or EtOAc, depending on solubility. […] The solvent was allowed to evaporate at room temperature over the weekend and then placed at 50° C. under vacuum for 3 hours to remove any remaining solvent. Approximately 25 volumes solvent (0.6 mL) was added to each vial for screening. The three solvents selected were EtOH, EtOAc, and IPA:water (9:1 vol). […] XRPD analysis was done in three stages. XRPD of the wet cake was done for all samples. Unique solids were then left on XRPD plates and dried under vacuum at 50° C. XRPD of unique dry solids was then done. […] The humid environment was generated by placing a beaker of saturated potassium sulfate in water in a sealed container. All XRPD patterns were compared to counter ion XRPD patterns and known free base patterns. Where solids were not of sufficient quantity to isolate, the solvent was evaporated at room temperature, the material dried at 50° C. under active vacuum for 3 hours, and then reslurried at room temperature in either MtBE or IPAc overnight after heating to 45° C. for 30 minutes.

In the case of `COC1(C(=O)NC(C)c2ccc(-n3cc(F)cn3)nc2)CCC(c2nc(C)cc(Nc3cc(C)[nH]n3)n2)CC1.Cl` (stereo not shown) [HCl 5-B], the “Stability 40° C./75% RH” value ([1]; XRPD pattern after exposure) is reported as “Stable” and the “Stability 7-day slurry” value [2] is reported as “Stable”.
With `CO[C@]1(C(=O)N[C@@H](C)c2ccc(-n3cc(F)cn3)nc2)CC[C@H](c2nc(C)cc(Nc3cc(C)[nH]n3)n2)CC1` [Solid Form 8-A, pralsetinib] the “stability of salt solid form to humidification” value (from here on “stability … to humidification”) ([3]; listed as Pattern 8-A) was “stable”, the “stability … to humidification” value ([3]; listed as maleate 8-A) was “stable” and the “stability of salt solid form to drying” value ([3]; listed as Pattern 8-A) was “stable”. The “stability of salt solid form to drying” value ([3]; listed as maleate 8-A) was “stable”.
With `CO[C@]1(C(=O)N[C@@H](C)c2ccc(-n3cc(F)cn3)nc2)CC[C@@H](c2nc(C)cc(Nc3cc(C)[nH]n3)n2)CC1.Cl` [HCl] the “XRPD Pattern Dry” value ([3]; solvent EtOAc) was 5-C + broad, the “XRPD Pattern Humid” value ([3]; solvent EtOAc) was 5-C + trace and the “XRPD Pattern Humid” value ([3]; solvent IPA:water (9:1 vol)) was 5-C + trace.
For `CO[C@]1(C(=O)N[C@@H](C)c2ccc(-n3cc(F)cn3)nc2)CC[C@H](c2nc(C)cc(Nc3cc(C)[nH]n3)n2)CC1` [Solid Form 10-A+B, pralsetinib], the “stability … to humidification” value ([3]; listed as 10-A+B) was “stable” and the “stability of salt solid form to drying” value ([3]; listed as 10-A+B) was “stable”.
In the case of `CO[C@]1(C(=O)N[C@@H](C)c2ccc(-n3cc(F)cn3)nc2)CC[C@H](c2nc(C)cc(Nc3cc(C)[nH]n3)n2)CC1` [Solid Form 1-B, pralsetinib], the “stability … to humidification” value ([3]; listed as solid form 1-B) is reported as “converted to Pattern 1-C”.
In the case of `CO[C@]1(C(=O)N[C@@H](C)c2ccc(-n3cc(F)cn3)nc2)CC[C@H](c2nc(C)cc(Nc3cc(C)[nH]n3)n2)CC1` [Solid Form 12-B, pralsetinib], the “stability of salt solid form to drying” value ([3]; listed as Pattern 12-B) is reported as “stable”.
In the case of `CO[C@]1(C(=O)N[C@@H](C)c2ccc(-n3cc(F)cn3)nc2)CC[C@H](c2nc(C)cc(Nc3cc(C)[nH]n3)n2)CC1` [hydrochloride, pralsetinib], the “stability on exposure to 75% relative humidity at 40° C.” value ([1]; one week / 7 days, XRPD, listed as HCl salt) is reported as “stable” and the “stability … to humidification” value [3] is reported as “deliquesced”.
In the case of `CO[C@]1(C(=O)N[C@@H](C)c2ccc(-n3cc(F)cn3)nc2)CC[C@H](c2nc(C)cc(Nc3cc(C)[nH]n3)n2)CC1` [Solid Form 5-C, pralsetinib], the “stability … to humidification” value ([3]; listed as Form 5-C) is reported as “stable”.
With `CO[C@]1(C(=O)N[C@@H](C)c2ccc(-n3cc(F)cn3)nc2)CC[C@H](c2nc(C)cc(Nc3cc(C)[nH]n3)n2)CC1` [Solid Form 6-A, pralsetinib] the “stability … to humidification” value ([3]; listed as Pattern 6-A) was “became amorphous with one peak”.
For `CO[C@]1(C(=O)N[C@@H](C)c2ccc(-n3cc(F)cn3)nc2)CC[C@H](c2nc(C)cc(Nc3cc(C)[nH]n3)n2)CC1` [Solid Form 4-B, pralsetinib], the “stability … to humidification” value ([3]; listed as Pattern 4-B) was “stable”.
For `CO[C@]1(C(=O)N[C@@H](C)c2ccc(-n3cc(F)cn3)nc2)CC[C@H](c2nc(C)cc(Nc3cc(C)[nH]n3)n2)CC1` [Pyruvate, pralsetinib], the “stability … to humidification” value [3] was “changed form”.
With `CS(=O)(=O)O` [MSA] the “XRPD Pattern Dry” value ([3]; solvent IPA:water (9:1 vol)) was 2-B + extra.
In the case of `CO[C@]1(C(=O)N[C@@H](C)c2ccc(-n3cc(F)cn3)nc2)CC[C@H](c2nc(C)cc(Nc3cc(C)[nH]n3)n2)CC1` [citrate, pralsetinib], the “stability … to humidification” value [3] is reported as “deliquesced” and the “stability … to humidification” value ([3]; listed as Citrate) is reported as “deliquesced”.
In the case of `CO[C@]1(C(=O)N[C@@H](C)c2ccc(-n3cc(F)cn3)nc2)CC[C@H](c2nc(C)cc(Nc3cc(C)[nH]n3)n2)CC1` [sulfates generated from the 1.1 eq. experiments] [pralsetinib], the “stability … to humidification” value [3] is reported as “changed form”.
In the case of `CO[C@]1(C(=O)N[C@@H](C)c2ccc(-n3cc(F)cn3)nc2)CC[C@H](c2nc(C)cc(Nc3cc(C)[nH]n3)n2)CC1` [Solid Form 4-A, pralsetinib], the “stability … to humidification” value ([3]; listed as Pattern 4-A) is reported as “stable” and the “stability of salt solid form to drying” value ([3]; listed as Pattern 4-A) is reported as “Pattern 4-C”.
With `CO[C@]1(C(=O)N[C@@H](C)c2ccc(-n3cc(F)cn3)nc2)CC[C@H](c2nc(C)cc(Nc3cc(C)[nH]n3)n2)CC1` [Solid Form 12-C, pralsetinib] the “stability of salt solid form to drying” value ([3]; listed as Pattern 12-C) was “stable”.
In the case of `CO[C@]1(C(=O)N[C@@H](C)c2ccc(-n3cc(F)cn3)nc2)CC[C@H](c2nc(C)cc(Nc3cc(C)[nH]n3)n2)CC1` [Solid Form 5-B, pralsetinib], the “stability slurrying 7 days in EtOAc” value ([2]; EtOAc, XRPD and HPLC, listed as Pattern 5-B) is reported as “stable”, the “stability slurrying 7 days in EtOH” value ([2]; EtOH, XRPD and HPLC, listed as Pattern 5-B) is reported as “stable” and the “stability slurrying 7 days in EtOH:water (95:5 vol)” value ([2]; EtOH:water (95:5 vol), XRPD and HPLC, listed as Pattern 5-B) is reported as “stable”. For the same compound, the “stability … to humidification” value ([3]; listed as Pattern 5-B) was “stable”, the “stability of salt solid form to drying” value ([3]; listed as Form 5-B) was “converted to Form 5-C” and the “stability of salt solid form to drying” value ([3]; listed as Pattern 5-B) was “dried to Pattern 5-C”.
In the case of `CO[C@]1(C(=O)N[C@@H](C)c2ccc(-n3cc(F)cn3)nc2)CC[C@H](c2nc(C)cc(Nc3cc(C)[nH]n3)n2)CC1` [Solid Form 5-A, pralsetinib], the “stability … to humidification” value ([3]; listed as Form 5-A) is reported as “deliquesced”, the “stability … to humidification” value ([3]; listed as Pattern 5-A) is reported as “deliquesced” and the “stability … to humidification” value ([3]; listed as hydrochloride (5-A)) is reported as “deliquesced”. For the same compound, the “stability of salt solid form to drying” value ([3]; listed as Form 5-A) was “stable” and the “stability of salt solid form to drying” value ([3]; listed as Pattern 5-A) was “stable”.
With `CO[C@]1(C(=O)N[C@@H](C)c2ccc(-n3cc(F)cn3)nc2)CC[C@H](c2nc(C)cc(Nc3cc(C)[nH]n3)n2)CC1` [saccharine salt, pralsetinib] the “stability … to humidification” value [3] was “changed form”.
In the case of `CO[C@]1(C(=O)N[C@@H](C)c2ccc(-n3cc(F)cn3)nc2)CC[C@H](c2nc(C)cc(Nc3cc(C)[nH]n3)n2)CC1` (single isomer, unassigned) [Pattern 12-G+2 peaks, pralsetinib], the “stability … to humidification” value [3] is reported as “reverted to Pattern 12-G” and the “stability of salt solid form to drying” value [3] is reported as “converted to Pattern 12-H”.
With `CO[C@]1(C(=O)N[C@@H](C)c2ccc(-n3cc(F)cn3)nc2)CC[C@H](c2nc(C)cc(Nc3cc(C)[nH]n3)n2)CC1` [Solid Form 12-D, pralsetinib] the “stability of salt solid form to drying” value ([3]; listed as Pattern 12-D) was “Pattern 12-E”.
With `CO[C@]1(C(=O)N[C@@H](C)c2ccc(-n3cc(F)cn3)nc2)CC[C@H](c2nc(C)cc(Nc3cc(C)[nH]n3)n2)CC1` [Fumarate, pralsetinib] the “stability of salt solid form to drying” value [3] was “changed”.
For `CO[C@]1(C(=O)N[C@@H](C)c2ccc(-n3cc(F)cn3)nc2)CC[C@H](c2nc(C)cc(Nc3cc(C)[nH]n3)n2)CC1` [gentisate, pralsetinib], the “stability … to humidification” value [3] was “deliquesced”.
In the case of `CO[C@]1(C(=O)N[C@@H](C)c2ccc(-n3cc(F)cn3)nc2)CC[C@H](c2nc(C)cc(Nc3cc(C)[nH]n3)n2)CC1` [Solid Form 1-A, pralsetinib], the “stability … to humidification” value ([3]; listed as solid form 1-A) is reported as “peak shift”.
For `CO[C@]1(C(=O)N[C@@H](C)c2ccc(-n3cc(F)cn3)nc2)CC[C@H](c2nc(C)cc(Nc3cc(C)[nH]n3)n2)CC1` [Solid Form 9-A, pralsetinib], the “stability … to humidification” value ([3]; listed as 9-A) was “stable”, the “stability … to humidification” value ([3]; listed as oxalate 9-A) was “stable” and the “stability of salt solid form to drying” value ([3]; listed as 9-A) was “stable”. For the same compound, the “stability of salt solid form to drying” value ([3]; listed as oxalate 9-A) was “stable”.
In the case of `CO[C@]1(C(=O)N[C@@H](C)c2ccc(-n3cc(F)cn3)nc2)CC[C@H](c2nc(C)cc(Nc3cc(C)[nH]n3)n2)CC1` [sulfate, pralsetinib], the “stability of salt solid form to drying” value [3] is reported as “changed”.
